Reference: paper PMC6287396, “Hyperactivation of Oncogenic JAK3 Mutants Depend on ATP Binding to the Pseudokinase Domain” (Frontiers in Oncology, 2018)
Blank lines part the entries; values can stand above or below the molecule they belong to.

Legend:
JAK1 JH2 [1] = target: T1, JAK1 JH2; design: method as in PMID 25825724; conditions: JAK1 JH2, with MgCl2; read-out: Kd (MANT-ATP); cited from earlier work
T1 construct: Recombinant JAK1 JH2 553-836-His; His (C)

TYK2 JH2 [2] = target: T2, TYK2 JH2; design: method as in PMID 26359499; conditions: TYK2 JH2, with MgCl2; read-out: Kd (MANT-ATP); cited from earlier work
T2 construct: TYK2 JH2 564-876-His proteins; His (C)

JAK3 JH2 [3] = target: T3, JAK3 JH2 (Homo sapiens, UniProt P52333); test: MANT-ATP binding assay (steady-state FRET)
T3 construct: JAK3 JH2 (residues 511–790) was cloned into the pFASTBAC1 vector (Invitrogen) with a C-terminal His6 tag; His6 (C); made in house; host or cells: Spodoptera frugiperda (Sf9) insect cells, baculovirus (pFASTBAC1)
T3 sequence (P52333 511-790): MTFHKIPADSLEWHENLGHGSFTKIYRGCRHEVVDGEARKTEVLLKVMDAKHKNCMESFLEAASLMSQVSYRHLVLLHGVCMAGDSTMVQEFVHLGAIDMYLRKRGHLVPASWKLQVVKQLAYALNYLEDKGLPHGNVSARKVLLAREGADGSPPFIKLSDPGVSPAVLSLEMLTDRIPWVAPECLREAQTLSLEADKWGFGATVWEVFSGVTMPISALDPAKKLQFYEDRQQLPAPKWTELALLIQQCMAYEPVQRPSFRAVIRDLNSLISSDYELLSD
Protocol: The steady-state fluorescence of MANT-labeled ATP was measured as described in Mysore et al. ([34]). Briefly, the fluorescently labeled MANT (2′/3′-(N-methyl-anthraniloyl)-ATP was titrated against 1.5 μM recombinant JAK3 JH2. In addition, the protein was titrated as 0, 0.05, 0.25, 1.25, and […] against 0.25 μM MANT-ATP. FRET signal was measured with QuantaMaster PTI Fluorometer and the data was analyzed using GraphPad Prism version 5.02 and Microsoft Excel. Protein titrations were done in duplicate and in MANT-ATP titration in triplicate.

JAK2 JH2 [4] = target: T4, JAK2 JH2; design: method as in PMID 25825724; conditions: JAK2 JH2, with MgCl2; read-out: Kd (MANT-ATP); cited from earlier work
T4 construct: JAK2 JH2 503-827-His; His (C)

JAK3 JH2 [5] = target: T3, JAK3 JH2; test: Differential scanning fluorimetry (thermal shift); type: binding; conditions: for Effect of nucleotide on Tm (ΔTm): JAK3 JH2, nucleotide titration 0.2, 0.5, 1 mM
Protocol: (§1) Protein concentration of 3 μM was used for the measurement of the melting temperature (Tm). Reactions were done in the buffer used in the SEC. Addition of other components (ATP, salts) were taken into account by including 2X buffer, if needed. Signal arising from the fluorescent dye Life Technologies SYPRO^TM Orange Protein Gel Stain, 4X working solution from 5000X concentrate in DMSO) was measured with a conventional Real-Time PCR system (Bio-Rad CFX), 1°C per min from 4 to 96°C. Results were transferred and normalized in Microsoft Excel and the Tm was derived from the sigmoidal function using GraphPad Prism version 5.02 for Windows, GraphPad Software, La Jolla California USA, https://www.graphpad.com/.

TYK2 JH2 [6] = system: T2, TYK2 JH2; test: Differential scanning fluorimetry (thermal shift); type: binding
Protocol: as §1

JAK2 JH2 [7] = system: T4, JAK2 JH2; test: Differential scanning fluorimetry (thermal shift); type: binding
Protocol: as §1

JAK1 JH2 [8] = system: T1, JAK1 JH2; test: Differential scanning fluorimetry (thermal shift); type: binding; conditions: JAK1 JH2, 1 mM ATP
Protocol: as §1

JAK1 JH2 553-836-His = target: T5, JAK1 JH2 553-836-His (Homo sapiens, UniProt P23458); test: Fluorescence polarization competition assay (ATP vs Bodipy FL JNJ-7706621 tracer); type: binding; conditions: JAK1 JH2, ATP competing with tracer, with MgCl2
T5 construct: Recombinant JAK1 JH2 553-836-His; His (C)
T5 sequence (P23458 553-836): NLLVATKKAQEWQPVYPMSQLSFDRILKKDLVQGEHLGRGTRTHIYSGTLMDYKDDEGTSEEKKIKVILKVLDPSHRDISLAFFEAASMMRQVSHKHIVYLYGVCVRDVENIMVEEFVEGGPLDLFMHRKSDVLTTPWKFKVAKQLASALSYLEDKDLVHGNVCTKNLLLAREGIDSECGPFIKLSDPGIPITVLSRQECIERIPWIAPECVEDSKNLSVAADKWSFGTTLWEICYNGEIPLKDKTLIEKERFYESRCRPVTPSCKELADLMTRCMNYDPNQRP
Protocol: (§2) Fluorescence polarization measurements were performed in black 384-well plates (ProxiPlate-384 F Plus, PerkinElmer) at sample volume of 5 μl/well on PerkinElmer Envision plate reader using 480 nm excitation and 535 nm emission filters. Fluorescent tracer, Bodipy FL labeled JNJ-7706621 [compound 5 in ([35])] was used at 1.5 nM concentration. Recombinant JAK1 JH2 553-836-His, JAK2 JH2 503-827-His, JAK3 JH2 511-790-His, and TYK2 JH2 564-876-His proteins were used at concentrations (2 nM JAK1, 150 nM JAK2, 1 μM JAK3, 20 nM TYK2) dependent on protein-tracer dissociation constants. The assays were performed in a buffer consisting of 20 mM Tris-HCl pH 8.0, 150 mM NaCl, 20% glycerol, 0.01% Brij-35, and 2 mM DTT. ATP was titrated at concentration range of 5 nM−5 μM and fluorescence polarization values obtained were fitted against log[ATP] in GraphPad Prism to yield IC50 values. Assays were performed in triplicate.

JAK3 JH2 511-790-His = target: T6, JAK3 JH2 511-790-His (Homo sapiens, UniProt P52333); test: as above; type: binding; conditions: JAK3 JH2, ATP competing with tracer, no MgCl2 added
T6 construct: JAK3 JH2 (residues 511–790) was cloned into the pFASTBAC1 vector (Invitrogen) with a C-terminal His6 tag; His6 (C); made in house; host or cells: Spodoptera frugiperda (Sf9) insect cells, baculovirus (pFASTBAC1)
T6 sequence (P52333 511-790): T3 sequence (P52333 511-790)
Protocol: as §2

JAK2 JH2 503-827-His = target: T7, JAK2 JH2 503-827-His (Homo sapiens, UniProt O60674); test: as above; type: binding; conditions: JAK2 JH2, ATP competing with tracer, with MgCl2
T7 construct: JAK2 JH2 503-827-His; His (C)
T7 sequence (O60674 503-827): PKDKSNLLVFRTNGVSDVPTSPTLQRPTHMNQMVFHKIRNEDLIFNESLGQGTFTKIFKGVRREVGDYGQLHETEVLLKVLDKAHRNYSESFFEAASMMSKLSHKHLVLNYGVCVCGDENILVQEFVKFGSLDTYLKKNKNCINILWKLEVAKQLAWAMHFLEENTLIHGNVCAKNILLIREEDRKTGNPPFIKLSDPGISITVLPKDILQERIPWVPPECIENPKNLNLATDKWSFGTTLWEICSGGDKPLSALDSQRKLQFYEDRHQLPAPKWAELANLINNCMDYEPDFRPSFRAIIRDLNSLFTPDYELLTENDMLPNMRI
Protocol: as §2

TYK2 JH2 564-876-His = target: T8, TYK2 JH2 564-876-His (Homo sapiens, UniProt P29597); test: as above; type: binding; conditions: TYK2 JH2, ATP competing with tracer, with MgCl2
T8 construct: TYK2 JH2 564-876-His proteins; His (C)
T8 sequence (P29597 564-876): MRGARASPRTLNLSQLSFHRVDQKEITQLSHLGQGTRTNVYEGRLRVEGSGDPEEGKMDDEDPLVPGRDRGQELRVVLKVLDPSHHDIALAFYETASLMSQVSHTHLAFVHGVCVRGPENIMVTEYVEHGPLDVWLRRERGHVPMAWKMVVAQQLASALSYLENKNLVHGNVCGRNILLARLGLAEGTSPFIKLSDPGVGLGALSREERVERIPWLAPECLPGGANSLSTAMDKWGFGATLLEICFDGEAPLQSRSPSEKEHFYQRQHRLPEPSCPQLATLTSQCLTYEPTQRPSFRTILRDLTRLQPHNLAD
Protocol: as §2

- fold tighter MANT-ATP binding of JAK3 JH2 compared to JAK1 JH2 (JAK3 JH2 [3]; JAK3 JH2 vs JAK1 JH2): 6 fold
- fold tighter MANT-ATP binding of JAK3 JH2 compared to JAK2 JH2 (JAK3 JH2 [3]; JAK3 JH2 vs JAK2 JH2): 3 fold
- fold tighter MANT-ATP binding of JAK3 JH2 compared to TYK2 JH2 (JAK3 JH2 [3]; JAK3 JH2 vs TYK2 JH2): 30 fold
Molecule: 2′/3′-(N-methyl-anthraniloyl)-ATP [MANT-ATP]
- Kd (JAK1 JH2 [1]): 3.1 µM
- Kd (TYK2 JH2 [2]): 15 µM
- Kd (JAK2 JH2 [4]): 1.3 µM

Molecule: Nc1ncnc2c1ncn2[C@@H]1O[C@H](COP(=O)(O)OP(=O)(O)O)[C@@H](O)[C@H]1O [ADP]
- Effect of nucleotide on Tm (ΔTm) (JAK3 JH2 [5]): significantly reduced ΔTm compared to ATP

- Effect of nucleotide on Tm (ΔTm) (JAK3 JH2 [5]): no effect on Tm
Molecule: Nc1ncnc2c1ncn2[C@@H]1O[C@H](COP(=O)(O)O)[C@@H](O)[C@H]1O [AMP]

- Kd (JAK3 JH2 [5]; 50 nM−1 mM ATP titrated to 3 μM JAK3 JH2, read-out: Kd approximated with DSF): 40.4 ± 97.1 µM
- ΔTm (JAK3 JH2 [5]; JAK3 JH2, 0.2 mM ATP): 8 °C
- TmATP (JAK3 JH2 [5]; melting temperature of JAK3 JH2 with ATP): 41 °C
- IC50 (JAK1 JH2 553-836-His): 110 µM
- IC50 (JAK3 JH2 511-790-His): 16 µM
- IC50 (JAK2 JH2 503-827-His): 102 µM
- IC50 (TYK2 JH2 564-876-His): 471 µM
Molecule: Nc1ncnc2c1ncn2[C@@H]1O[C@H](COP(=O)(O)OP(=O)(O)OP(=O)(O)O)[C@@H](O)[C@H]1O [ATP]
- ΔTm (1 mM ATP) (TYK2 JH2 [6]; TYK2 JH2, 1 mM ATP): 0.9 °C
- TmATP (TYK2 JH2 [6]; melting temperature of TYK2 JH2 with ATP): 48 °C
- ΔTm (1 mM ATP) (JAK2 JH2 [7]; JAK2 JH2, 1 mM ATP): 4.9 °C
- TmATP (JAK2 JH2 [7]; melting temperature of JAK2 JH2 with ATP): 46 °C
- ΔTm (1 mM ATP) (JAK1 JH2 [8]): 3.9 °C
